Data reported in patent US9944991B2, “Compositions and methods for diagnosis, prognosis and treatment of hematological malignancies” (Dana-Farber Cancer Institute, Inc., priority 2012, dated 2018).
Entries after “also recorded” stand apart in the source; their conditions may differ. One block for each molecule: values may come before it.

Key:
NF-κB p65 = NF-κB p65 DNA-binding activity (Active Motif TransAM) in nuclear extracts; type: cell-based, human; details: BCWM.1 and MWCL.1; everolimus 1 nM or bortezomib 5 nM, 4 hours; TNF-α 10 ng/mL
Text: NF-κB activity was investigated using the Active Motif TransAM kits, a DNA-binding enzyme-linked immunosorbent assay (ELISA)-based assay (Active Motif North America, Carlsbad, Calif.).

miR-155 [1] = experiment: Gene expression profiling and qRT-PCR of miR-155 target mRNAs in BCWM1 cells; type: cell-based, human; details: vs scramble control
Procedure: Total RNA from BCWM1 cells treated with antimiR-155 or LNA scramble control oligonucleotide, respectively, for 48 hours, were isolated using RNeasy kit (Qiagen) as described by the manufacturer, and hybridized on an Affymetrix U133A 2.0 array chip (Affymetrix, Santa Clara, Calif.). GEP data were analyzed using dChip software (biosunl.harvard.edu/complab/dchip/). Candidate target mRNAs for miR-155 were identified by using the algorithms TargetScan (genes.mit.edu/targetscan/), PicTar (pictar.bio.nyu.edu/) and RNAhybrid (bibiserv.techfak.uni-bielefeld.de/rnahybrid/).
(§1) Total RNA of cells was isolated with the RNeasy kit (Qiagen). cDNA was synthesized using the SuperScript cDNA synthesis kit (Invitrogen) and qRT-PCR reactions were performed using SYBR master mix (SA Bioscience) with designated primers relative to 18S expression by StepOnePlus™ Real-Time PCR System (Applied Biosystem) in triplicates. TaqMan® microRNA Assays kits (Applied Biosystem) were used for quantifying hsa-miR-155 levels relative to RNU6B expression.
To identify new direct miR-155 targets in B cell lymphomas, gene expression profiling (GEP) was performed on BCWM.1 cells after treatment with antimiR-155 or scramble control for 24 or 48 hours. […]

[2] = system: primary WM bone marrow stromal cells; experiment: Cytotoxicity on stromal cells in co-culture; type: cell-based, human; details: 20 μM, 48 hours
Procedure: (§2) To examine the effect of antimiR-155 on tumor progression in the context of the microenvironment, the miR-155 levels were first quantified in bone marrow stromal cells (mesenchymal stem cells) from WM patients in comparison to normal healthy donors. […] Consequently, 20 μM antimiR-155 or scramble control was added to a co-culture of BCWM1 and primary WM bone marrow stromal cells or MEC1 cells and primary WM bone marrow stromal cells, and then assessed for cell proliferation by MTT and [H]^3 thymidine uptake assays, respectively, after 48-hours. […] No effect on cell cytotoxicity on stromal cells was observed.

MEC1 cells [3] = experiment: [H]3 thymidine uptake cell proliferation assay; type: cell-based, human; details: 20 μM, 48 hours, vs scramble control
Procedure: (§3) To assess the uptake of antimiR-155 into BCWM1 or MEC1 cells, a 5′ FAM-labeled antimiR-155 was used and the antimiR was added directly to the cell suspension without any transfection reagent. The uptake of FAM-labeled antimiR-155 into BCWM1 cells was higher than 90% as judged by flow cytometry (data not shown), which indicates efficient delivery of the 8-mer antimiR into tumor cells. To further examine the functional effect of antimiR-155 on BCWM1 or MEC1, cell survival and cell proliferation was measured by MTT and [H]^3 thymidine uptake assays, respectively. […] Thus, miR-155 inhibition regulates cell proliferation, but not cell apoptosis.

BCWM1 cells [4] = experiment: [H]3 thymidine uptake cell proliferation assay; type: cell-based, human; details: 20 μM, 48 hours, vs scramble control
Procedure: as §3

MEC1 cells [5] = experiment: Co-culture with stromal cells from wild-type or miR-155−/− mice, [H]3 thymidine uptake; type: cell-based, human; details: 20 μM, 48 hours, vs scramble control
Procedure: (§4) To further clarify whether antimiR-155 can affect both tumor cells and stromal cells, BCWM1 or MEC1 cells were treated with antimiR-155 or scramble control, followed by co-culturing of the treated cells with bone marrow stromal cells from wild-type mice in comparison with stromal cells from miR-155^−/− mice. Cell survival and cell proliferation were assessed by MTT assay and [H]^3 thymidine uptake assays, respectively, after 48-hour of co-culture.

BCWM1 cells [6] = experiment: as above; type: cell-based, human; details: 20 μM, 48 hours, vs scramble control
Procedure: as §4

MEC1 cells [7] = experiment: MTT cell survival / cytotoxicity assay; type: cell-based, human; details: 20 μM, 48 hours, vs scramble control
Procedure: as §3

BCWM1 cells [8] = experiment: MTT cell survival / cytotoxicity assay; type: cell-based, human; details: 20 μM, 48 hours, vs scramble control
Procedure: as §3

miR-155 [9] = experiment: miR-155 target de-repression in xenograft mice (qRT-PCR of bone marrow CD19+ cells, immunostaining); type: in vivo, SCID mice
Procedure: (§5) Immediately after tail vein injection of mCherry-Luc+-BCWM1 cells (3×10^6/mouse) in SCID mice, the mice (6 mice/group) were treated with a single intravenous tail vein injection of 25 mg/kg with either antimiR-155 or LNA scramble control, followed by weekly maintenance doses of 5 mg/kg antimiR-155 or LNA scramble control until the mice were sacrificed. Mice were injected with 75 mg/kg luciferin (Caliper Life Sciences, Hopkinton, Mass.), followed by whole-body real-time bioluminescence imaging (Xenogen IVIS imaging system, Caliper Life Sciences, Hopkinton, Mass.) performed at Day 0, Day 14, and Day 19. Mice were sacrificed by inhalation of CO2. RNA was extracted from CD19+ cells isolated from one mouse femur by using CD19+ microbead selection. The other femur, liver, and spleen were fixed in formaldehyde.
Moreover, immunostaining confirmed de-repression of the MAFB and CEBPβ targets at the protein level in the bone marrow and spleen upon treatment with the antimiR-155 (FIG. 7D).

mCherry-Luc+-BCWM1 cells = experiment: Xenograft mouse model of WM, bioluminescent imaging of tumor burden; type: in vivo, SCID mice
Procedure: as §5
To assess the anti-tumor activity of antimiR-155 in vivo, a xenograft mouse model of WM was used. Six SCID mice per group were engrafted with 3×10^6 mCherry-Luc^+-BCWM1 cells, after which mice were injected with a loading dose of 25 mg/kg antimiR-155 or scramble control, which was followed by weekly maintenance doses of 5 mg/kg of each respective compound until the mice were sacrificed. Tumor burden was monitored using bioluminescent imaging (BLI) at Days 0, 14, and 19 after injection (FIG. 7A).

MEC1 cells [10] = experiment: Co-culture with primary WM bone marrow stromal cells, proliferation; type: cell-based, human; details: 20 μM, 48 hours
Procedure: as §2

BCWM1 cells [11] = experiment: as above; type: cell-based, human; details: 20 μM, 48 hours
Procedure: as §2

miR-155 [12] = experiment: qRT-PCR of miR-155 target genes in primary WM CD19+ cells; type: cell-based, human; details: 20 μM, 48 hours, vs scramble control
Procedure: as §1
(§6) The mRNA levels of the six miR-155 target genes, SMAD5, SOCS1, CEBPβ, MAFB, SHANK2 and SH3PXD2A, […] were next determined by qRT-PCR from primary WM CD19^+ cells, and primary CLL cells, normal donor blood CD19^+ cells, BCWM1 and MEC1 cells.

miR-155 [13] = experiment: qRT-PCR of miR-155 target genes in primary CLL cells; type: cell-based, human; details: 20 μM, 48 hours, vs scramble control
Procedure: as §1, §6

TNF-α-induced NF-κB recruitment to the nucleus, single agents (NF-κB p65): similarly inhibited
Molecule: CC(C)C[C@H](NC(=O)[C@H](Cc1ccccc1)NC(=O)c1cnccn1)B(O)O [bortezomib]

Molecule: antimiR-155: fully LNA-modified 8-mer seed-targeting antimiR-155 (3′ATTACGAT 5′ (SEQ ID NO:9)) (fully LNA-modified, chemistry not fully specified; listed 3' to 5')
validated miR-155 target mRNAs (CEBPβ, SMAD5, SOCS1) (miR-155 [1]; 24 or 48 hours): up-regulated; also recorded: upregulated | new miR-155 targets MAFB, SHANK2, SH3PXD2A mRNA (miR-155 [1]; 48 hours): de-repressed; also recorded: upregulated | cell cytotoxicity on stromal cells [2]: No effect | cell proliferation (MEC1 cells [3]): significant reduction in cell proliferation | cell proliferation (BCWM1 cells [4]): significant reduction in cell proliferation | tumor cell proliferation, co-culture with miR-155−/− stromal cells (MEC1 cells [5]): not significantly | tumor cell proliferation, co-culture with wild-type mice stroma (MEC1 cells [5]): decreased tumor cell proliferation | tumor cell proliferation, co-culture with miR-155−/− stromal cells (BCWM1 cells [6]): not significantly | tumor cell proliferation, co-culture with wild-type mice stroma (BCWM1 cells [6]): decreased tumor cell proliferation | cell cytotoxicity (MEC1 cells [7]): no change in cell cytotoxicity | cell cytotoxicity (BCWM1 cells [8]): no change in cell cytotoxicity | CEBPβ protein level in bone marrow and spleen (immunostaining) (miR-155 [9]; mouse, in vivo): de-repression | MAFB protein level in bone marrow and spleen (immunostaining) (miR-155 [9]; mouse, in vivo): de-repression | mRNA levels of six miR-155 targets in bone marrow WM CD19+ cells (miR-155 [9]; vs scramble control): de-repressed | tumor burden (BLI) (mCherry-Luc+-BCWM1 cells; 25 mg/kg loading dose, weekly 5 mg/kg, Day 14 and Day 19, vs scramble control): significant reduction in tumor burden; also recorded: significantly decreased tumor burden | body weight (mCherry-Luc+-BCWM1 cells; antimiR-155 vs scramble control group): No difference in body weight | tumor cell proliferation in co-culture (MEC1 cells [10]): decreased tumor cell proliferation | protective effect of bone marrow stromal cells on WM tumor cells (BCWM1 cells [11]): overcame the protective effect of bone marrow stromal cells | tumor cell proliferation in co-culture (BCWM1 cells [11]; primary WM bone marrow stromal cells): decreased tumor cell proliferation | mRNA levels of the six miR-155 targets (miR-155 [12]): significant increase in the mRNA levels | mRNA levels of the six miR-155 targets (miR-155 [13]): significant increase in the mRNA levels
